This passage reports IC50 results from BindingDB's records for PubMed 34214508 (Roche Innovation Center Shanghai, 2021).

This assay in a line: Inhibition of mouse TNF-alpha in mouse L929 cells incubated for 18 hrs by CellTitreGlo assay.

The term IC50 denotes the concentration needed to halve the response being measured. `Cc1ccc(C)c(Cn2c(C(O)c3ccncc3)nc3ccc(-c4cnn(C)c4)cc32)c1` (stereo unspecified) returned a half-inhibitory concentration (IC50) of 125 nM. This counts as sub-micromolar.
